According to patent US7186738B2, “Antibacterial oxalidinones” (AstraZeneca AB, priority 2003, dated 2007):
Converted amounts (≈) assume the structure as drawn. Values belong to the compound of their own block, whether it stands above or below them.

Experiments:
[1] = test system: Enterococcus faecium; assay: MIC by agar dilution, standard in-vitro test system; type: cell-based; conditions: agar with 5% defibrinated horse blood, 10^4 CFU/spot, 37° C., 5% carbon dioxide, 48 hours
Method: (§1) The following results were obtained on a standard in-vitro test system. The activity is described in terms of the minimum inhibitory concentration (MIC) determined by the agar-dilution technique with an inoculum size of 10^4 CFU/spot. Typically, compounds are active in the range 0.01 to 256 μg/ml. Streptococci and enterococci were tested on agar supplemented with 5% defibrinated horse blood, an inoculum of 10^4 CFU/spot and an incubation temperature of 37° C. in an atmosphere of 5% carbon dioxide for 48 hours—blood is required for the growth of some of the test organisms.

[2] = test system: Streptococcus pneumoniae; assay: as above; type: cell-based; conditions: agar with 5% defibrinated horse blood, 10^4 CFU/spot, 37° C., 5% carbon dioxide, 48 hours
Method: as §1

[3] = test system: Moraxella catarrhalis; assay: as above; type: cell-based; conditions: inoculum 10^4 CFU/spot
Method: (§2) The following results were obtained on a standard in-vitro test system. The activity is described in terms of the minimum inhibitory concentration (MIC) determined by the agar-dilution technique with an inoculum size of 10^4 CFU/spot. Typically, compounds are active in the range 0.01 to 256 μg/ml.

[4] = test system: Staphylococcus aureus MRQR (methicillin resistant and quinolone resistant); assay: as above; type: cell-based; conditions: inoculum 10^4 CFU/spot, 37° C., 24 hours
Method: as §2
(§3) Staphylococci were tested on agar, using an inoculum of 10^4 CFU/spot and an incubation temperature of 37° C. for 24 hours—standard test conditions for the expression of methicillin resistance.

[5] = test system: Staphylococcus aureus MSQS (methicillin sensitive and quinolone sensitive); assay: as above; type: cell-based; conditions: inoculum 10^4 CFU/spot, 37° C., 24 hours
Method: as §2, §3

[6] = target: T1, MAO-A (Homo sapiens, UniProt P21397); assay: MAO-A standard in-vitro assay, human liver enzyme expressed in yeast; type: biochemical; conditions: read-out: Ki value against MAO-A (converted)
T1 construct: made in house; host or cells: yeast
T1 sequence (P21397 1-527): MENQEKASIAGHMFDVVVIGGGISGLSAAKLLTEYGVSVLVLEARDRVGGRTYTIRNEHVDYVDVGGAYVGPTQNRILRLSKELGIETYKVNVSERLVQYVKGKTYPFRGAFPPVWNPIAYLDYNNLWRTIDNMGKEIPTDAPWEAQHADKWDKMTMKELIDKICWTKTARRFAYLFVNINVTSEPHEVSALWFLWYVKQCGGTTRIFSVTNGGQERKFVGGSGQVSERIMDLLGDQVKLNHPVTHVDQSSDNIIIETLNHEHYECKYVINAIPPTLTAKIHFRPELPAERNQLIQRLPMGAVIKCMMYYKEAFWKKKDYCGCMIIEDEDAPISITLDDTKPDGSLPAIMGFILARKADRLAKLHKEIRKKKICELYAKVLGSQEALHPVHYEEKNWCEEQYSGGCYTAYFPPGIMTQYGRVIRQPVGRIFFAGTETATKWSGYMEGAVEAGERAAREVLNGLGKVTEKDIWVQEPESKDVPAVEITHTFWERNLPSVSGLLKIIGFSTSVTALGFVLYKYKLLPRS
Method: The activity of the compounds of the invention against MAO-A was tested using a standard in-vitro assay based on human liver enzyme expressed in yeast as described in Biochem. Biophys. Res. Commun. 1991, 181, 1084–1088.

SMILES: Cc1cc(-c2ccc(N3C[C@H](Cn4ccnn4)OC3=O)cc2F)on1 [Example 1, (5R)-3-[3-Fluoro-4-(3-methylisoxazol-5-yl)phenyl]-5-(1H-1,2,3-triazol-1-ylmethyl)-1,3-oxazolidin-2-one]
MIC [1]: 0.5 µg/mL (≈ 1.46 µM)
MIC [2]: 0.25 µg/mL (≈ 0.728 µM)
MIC [3]: 1 µg/mL (≈ 2.91 µM)
MIC [4]: 1 µg/mL (≈ 2.91 µM)
MIC [5]: 0.5 µg/mL (≈ 1.46 µM)

SMILES: CCOC(=O)c1cc(-c2ccc(N3C[C@H](Cn4ccnn4)OC3=O)cc2F)on1 [Example 2, Ethyl 5-{2-fluoro-4-[(5R)-2-oxo-5-(1H-1,2,3-triazol-1-ylmethyl)-1,3-oxazolidin-3-yl]phenyl}isoxazole-3-carboxylate]
Ki [6]: 47.3 µM

SMILES: CCOC(=O)c1cc(-c2ccc(N3C[C@H](CNC(C)=O)OC3=O)cc2F)on1 [acetamide analogue of Example 2, reference compound]
Ki [6]: 15.3 µM

Second part, the compound after the results:

Ki [6]: 106 µM
SMILES: CC(=O)NC[C@H]1CN(c2ccc(-c3c[nH]nn3)c(F)c2)C(=O)O1 [acetamide analogue of Example 7, reference compound]

Ki [6]: 437 µM
SMILES: O=C1O[C@@H](Cn2ccnn2)CN1c1ccc(-c2c[nH]nn2)c(F)c1 [Example 7, (5R)-3-[3-Fluoro-4-(1H-1,2,3-triazol-4-yl)phenyl]-5-(1H-1,2,3-triazol-1-ylmethyl)-1,3-oxazolidin-2-one]
